A melting point compilation (Tetko et al.)

melting point [°C]	Compound
246 to 248	O=C1NC(=O)C2(CC(C(=O)O)C2)N1 (stereo unspecified)
84 to 86	CC(N)C(=O)Nc1ccc(Cl)cc1 (stereo unspecified)
99 to 101	Clc1nccn2nnnc12
102 to 104	COc1ccc(CN2CCN(C(=O)CCNC(=O)c3ccc(C(C)(C)C)cc3)CC2)cc1
114 to 116	Cc1nc(N)nc(C2CC2)n1
141 to 143	Cn1cc(-c2ncc(C=O)s2)cn1
89 to 91	CC1(C)CCCCC1=CC(=O)O
206 to 208	O=C(O)c1cc2ccccc2c(OCC(F)(F)F)n1
169 to 171	Cn1nc(C2CCCCC2)cc1N
177 to 179	CC(C)c1cnc(S)n1C(C)C
146 to 148	CCOC(=O)CNC(=O)NCC(=O)OCC
199 to 201	COc1ccc(-n2cnnc2S)cn1
71 to 73	COc1cc(C#N)ccc1OC(C)C
281 to 283	C/C(=N\O)c1cc(C(=O)O)c[nH]c1=O
36 to 38	N#Cc1ccc(F)cc1N=C=O
160 to 162	Nc1ccc(C(=O)O)c(I)c1
114 to 116	CC(=O)N(C)c1cccc(N)c1
163 to 165	Nc1cc(S(=O)(=O)N2CCCC2)ccc1O
163 to 165	COc1ccc(C(=O)NC(C(=O)O)C(C)C)cc1 (stereo unspecified)
156 to 158	O=S1(=O)CCC(Cc2nc3ccccc3[nH]2)C1 (stereo unspecified)
239 to 241	Cn1nc(Br)c(C(=O)NCC(=O)O)c1N
105 to 115	O=C(O)c1cc(S(=O)(=O)Cl)ccc1Cl
196 to 198	O=C(O)c1cccc([N+](=O)[O-])c1N1CCOCC1
144 to 146	O=C(O)C1CSC(c2ccsc2)N1 (stereo unspecified)

melting point [°C]	Compound
179 to 181	CNc1ncnc2ccsc12
87 to 89	Cc1ccc([N+](=O)[O-])c2cccnc12
57 to 59	CC(C)(C)OC(=O)NC(CN)C1CC1 (stereo unspecified)
239 to 241	CC(=O)c1c[nH]c2cc(Br)ccc12
164 to 166	NC(=O)CCNCc1ccccc1
53 to 55	Cc1ccc(-c2ccc(C=O)o2)cc1
89 to 91	OCc1nccn1CC(F)(F)F
88 to 90	CCc1ccccc1NC(=O)CN1CCNCC1
209 to 211	COc1ccc2cc(C(=O)O)c(C)nc2c1
99 to 101	O=C(O)Cc1ccn(-c2ccccc2)n1
137 to 139	O=C1CCCN1c1ccc(Cl)c([N+](=O)[O-])c1
270 to 272	Nc1nnc2n1CCCC2
154 to 156	CC(C)NC(N)=O
77 to 79	CS(=O)(=O)Cc1ccc(F)cc1CN
54 to 56	Cc1cc(Br)ncc1N
179 to 181	O=C(O)Cc1csc(N2CCNC2=O)n1
175 to 177	N#Cc1ccc(S(=O)(=O)N2CCC(C(=O)O)CC2)cc1
50 to 52	COC(=O)c1cc(Cl)cc(S(=O)(=O)Cl)c1
230 to 238	O=c1[nH]c(CCl)nc2sc3c(c12)CCC3
120 to 122	CN(Cc1ccccc1)C(=O)NCCC(=O)O
277 to 279	CC(=O)Nc1cc(C(=O)O)ccc1C
125 to 127	Nc1cccc(CS(=O)C2CCOCC2)c1 (stereo unspecified)
110 to 112	CCc1cc(NN)nc(-c2ccccn2)n1
123 to 125	COc1ccc(O)c(C(C)N)c1 (stereo unspecified)

melting point [°C]	Compound
109 to 111	O=C(O)C1CCSCC1
167 to 169	CCOC(=O)c1sc2nc(C(C)Cl)[nH]c(=O)c2c1C (stereo unspecified)
135 to 137	C=CCn1c(S)n[nH]c1=O
189 to 191	Cc1nc(N)nc(Cl)c1Br
137 to 139	O=C(O)CCc1ccc(S(=O)(=O)N2CCCC2)cc1
148 to 152	CN(c1ccccc1)S(=O)(=O)c1cccc(C(=O)O)c1
41 to 43	CCc1nnc(CO)n1C
56 to 58	Cc1ccc(CC(=O)O)o1
201 to 203	O=C(O)C1(c2ccccc2Cl)CCOCC1
243 to 245	CCn1ncc2c(C(=O)O)cc(-c3cccs3)nc21
93 to 95	CC(C)(C)OC(=O)N1CCc2ccc(N)cc2C1
128 to 130	N#Cc1cnc2ccccc2c1Cl
220 to 222	CNc1nc(S)nc2ccccc12
105 to 107	COC(=O)c1cc(S(=O)(=O)Cl)c(Br)cc1F
260 to 262	O=C(O)c1cccc(S(=O)(=O)Nc2ccc(I)cc2)c1
90 to 92	Cc1cccc(-n2nc(C(C)(C)C)cc2N)c1
204 to 206	CC(=O)Nc1c(C)cccc1C(=O)O
152 to 154	NC(=O)CC1CC2CCC1C2 (stereo unspecified)
155 to 157	Cc1nc(Br)ccc1C(=O)O
204 to 206	O=C(O)c1ccc(S(=O)(=O)Cl)cc1Br
239 to 241	CC1CCC(Cn2c(N)cc(=O)[nH]c2=O)CC1 (stereo unspecified)
245 to 247	O=c1c2cc(Cl)cc(Cl)c2nc2n1CCC2
79 to 81	CC(C)(C)OC(=O)NC(C)(C)c1noc(CCl)n1
286 to 288	O=c1cc[nH]c2ccc(Br)cc12

melting point [°C]	Compound
216 to 218	Oc1ccc2cncnc2c1
130 to 132	CN(C)S(=O)(=O)c1ccc2c(c1)NCCC2
69 to 71	CC(C)(C)Sc1ccc(C#N)cn1
128 to 130	Cc1ccc(CN2C(=O)CCC2C(=O)O)cc1 (stereo unspecified)
158 to 160	O=C(O)C1CCN(c2ccc(Cl)cc2)C1=O (stereo unspecified)
277 to 279	CCCC(N)c1nnn[nH]1 (stereo unspecified)
139 to 141	COC(=O)c1cc(CBr)cc(C(=O)OC)c1
100 to 102	COc1ccc(N)cc1NC(=O)c1cccc(F)c1
77 to 79	CC(C#N)CNC(=O)OC(C)(C)C (stereo unspecified)
111 to 113	c1ccc(Cc2nnc3n2CCNC3)cc1
93 to 95	COc1ccc(Sc2ccc(N)cc2)cc1
175 to 177	Cc1cc(C(=O)O)nn1C(F)F
109 to 111	Cc1cc(Cl)c2cccc([N+](=O)[O-])c2n1
121 to 123	COC(=O)c1cc(Cl)c2ccccc2n1
137 to 139	CC(C)c1ccccc1NC(N)=S
128 to 130	NS(=O)(=O)c1cccc2c1N=S=N2
178 to 180	Nc1nc(-c2ccc3c(c2)OCCO3)n[nH]1
279 to 281	O=C(O)C1CCc2nncn2C1 (stereo unspecified)
181 to 183	O=C(O)CC(=O)Nc1nccs1
181 to 183	NS(=O)(=O)c1ccc(N2CCC(C(=O)O)CC2)c([N+](=O)[O-])c1
154 to 156	CCc1nc(N)sc1C(=O)O
181 to 183	COC(=O)c1cn(C)c(-c2ccc(N)cc2)c1C(=O)OC
116 to 118	CC(=O)c1nnn(-c2cccc3ncccc23)c1C
86 to 88	O=[N+]([O-])c1ccc(NC2CCCC2)cc1

melting point [°C]	Compound
88 to 90	COc1ccc(N=C=S)cc1Cl
271 to 273	Cn1nnc2ccc(C(=O)O)cc21
124 to 126	NC(=O)CO
106 to 108	O=C(O)CCn1cnc2ccccc21
169 to 171	O=C1Nc2ccccc2N2CCC12 (stereo unspecified)
169 to 171	CC(c1nnc(S)n1-c1ccc(F)cc1)N(C)C (stereo unspecified)
129 to 131	OCCN1CCN(c2ccc(CO)nn2)CC1
173 to 175	COc1ccc(S(=O)(=O)NCC(=O)O)cc1OC
109 to 111	O=C(O)c1cc2c([nH]1)CCC2
97 to 99	CCOc1ccccc1OCCC(=O)O
173 to 175	Cc1nn(C(F)F)c(C)c1CC(=O)O
174 to 176	CC1CCCCC1(NC(=O)OC(C)(C)C)C(=O)O (stereo unspecified)
114 to 116	Nc1cc(-c2c(F)cccc2F)no1
172 to 174	Cc1nc(C(=O)O)nn1-c1ccccc1
128 to 130	O=C(O)Cc1csc(Cc2ccccc2)n1
171 to 173	COc1ccc(S(=O)(=O)NC(CCC(N)=O)C(=O)O)cc1 (stereo unspecified)
140 to 142	O=C(O)c1c(Cl)cc(C(F)(F)F)cc1Cl
34 to 36	OCc1cccc(F)c1Cl
200 to 202	Cc1n[nH]c(-c2ccc(Cl)c(Cl)c2)n1
194 to 196	Cc1ccc(-c2nc(C(=O)O)cs2)o1
188 to 190	CCC1SC(N)=NC1=O (stereo unspecified)
76 to 78	CC(C)(C)c1ccc(CC(=O)O)cc1
208 to 210	c1ccc2[nH]c(-c3ccncc3)cc2c1
75 to 77	CC(C)CN1CCC(C(=O)O)CC1

melting point [°C]	Compound
139 to 141	CCCCC1NC(=O)NC1=O (stereo unspecified)
93 to 96	COc1c(Br)cc(Br)cc1C=O
142 to 144	CCN(CC)S(=O)(=O)c1cc(C(=O)O)ccc1C
45 to 47	ClCc1nnnn1-c1ccccc1Br
89 to 91	Fc1cc2ncnc(Cl)c2cc1F
123 to 125	O=[N+]([O-])c1cc(S(=O)(=O)Nc2ccc(Br)cc2)ccc1Cl
141 to 144	NC(COc1ccc(Cl)cc1Cl)=NO
243 to 245	Cc1ccc2[nH]cc(C(=O)C(F)(F)F)c2c1
172 to 174	Cc1c(C(=O)O)cc(S(N)(=O)=O)cc1[N+](=O)[O-]
107 to 109	NCC(O)COc1ccc2c(c1)OCO2 (stereo unspecified)
197 to 199	CCC(c1ccccc1)c1nnc(N)o1 (stereo unspecified)
166 to 168	O=C(O)c1ccc(Cl)c(NC(=O)c2cccs2)c1
165 to 167	O=C(CCl)N1N=C(c2cc3ccccc3o2)CC1c1ccco1 (stereo unspecified)
86 to 88	CCOc1ccc(C(=O)c2ccccc2Cl)cc1
83 to 85	CC(C)(C)OC(=O)NC(CO)CO
122 to 124	Nc1cc2c(cc1N)OCCCO2
51 to 53	N#CCC(=O)c1ccc(F)c(C(F)(F)F)c1
56 to 58	Clc1nnc(Cl)c(Cl)n1
109 to 111	N#CC(O)c1ccc([N+](=O)[O-])cc1 (stereo unspecified)
89 to 91	Cc1cc(C)n2nc(CCCO)nc2n1
298 to 300	O=C(CCl)Nc1ccc2c(c1)C(=O)c1ccccc1C2=O
114 to 116	O=C1NC(=O)N2CCCCC12 (stereo unspecified)

Compound	melting point [°C]
Cn1cc(S(=O)(=O)Cl)cn1	48 to 50
O=Cc1ccc(N2CCNCC2)s1	59 to 63
c1ccc2oc(N3CCNCC3)nc2c1	74 to 76
Cc1ccc(C(=O)CCl)s1	45 to 47
